Key:
Rattus norvegicus = details: for LD50: acute, mortality
Folsomia candida = details: chronic/long-term; duration: 14 days; reproduction
Apis mellifera = details: acute, mortality
Colinus virginianus = details: acute, oral, mortality
Oncorhynchus mykiss = details: acute; duration: 96 hours; mortality
Daphnia pulex = details: chronic/long-term; duration: 21 days; reproduction
Mus musculus = details: reproduction developmental; organ weight
Pimephales promelas = details: chronic/long-term; duration: 36 days; clinical signs
Lepomis macrochirus = details: acute; duration: 96 hours; mortality

SMILES | LD50 (Rattus norvegicus) [mg/kg] | NOEC (Folsomia candida) [mg/kg] | LD50 (Apis mellifera; dermal) [µg/piece] | LD50 (Apis mellifera; oral, unspecified) [µg/piece] | LC50 (Colinus virginianus; diet) [mg/kg] | LD50 (Colinus virginianus) [mg/kg] | LC50 (Oncorhynchus mykiss) [mg/L] | LD50 (Rattus norvegicus; oral) [mg/kg] | NOEL (Rattus norvegicus; reproduction developmental, organ weight) [mg/kg-day] | NOEC (Daphnia pulex) [mg/L] | NOEL (Anas platyrhynchos; reproductive) [mg/kg-day] | LC50 (Anas platyrhynchos; short-term, oral, feed, mortality) [mg/kg] | NOAEL (Mus musculus) [mg/kg-day] | LC50 (Tagia sp.; acute, mortality) [mg/kg] | NOEC (Tagia sp.; chronic/long-term, reproduction) [mg/kg] | NOEC (Pimephales promelas) [mg/L] | LC50 (Lepomis macrochirus) [mg/L]
CS(=O)(=O)c1ccc(C(=O)O)c(N)c1 [2-Amino-4-(methylsulfonyl)benzoic acid] | > 5000 |  |  |  |  |  |  |  |  |  |  |  |  |  |  |  | 
CS(=O)(=O)c1ccc(C(=O)C2C(=O)CCCC2=O)c([N+](=O)[O-])c1 [Mesotrione] |  | 50.5 | 52.5 | > 11 | > 5200 | > 2000 | > 120 | > 5000 | 0.3 | 180 | 20.6 | > 5200 | 2 | > 2000 | 10.8 | 12.5 | > 120
